Measured values published in patent US6391505B1, “Phthalocyanine crystal and its production, and electrophotosensitive material using the same” (Kyocera Mita Corporation, priority 1999, dated 2002).

Legend:
[1] = Reduction potential of organic acceptor compound by cyclic voltammetry; type: physicochemical; conditions: for Reduction potential [V] of organic acceptor: organic acceptor added when producing the phthalocyanine crystal, reference electrode (Ag+/Ag); for Reduction potential [V] / Redox potential: organic acceptor; for Reduction Potential: to reference electrode (Ag+/Ag), cyclic voltammetry in dichloromethane
Protocol: The reduction potential of the organic acceptor compound was determined by a cyclic voltammetry. The measurement conditions are shown below.
Work electrode: glassy carbon
Counter electrode: platinum
Reference electrode: silver/silver nitrate (0.1 mol/1AgNO3-acetonitrile solution)
Electrolyte: tetra-n-butylammonium perchlorate (0.1 mol)
Specimen: acceptor compound (0.001 mol)
Solvent: dichloromethane (1 L)

[2] = Solubility of organic acceptor compound in tetrahydrofuran (solvent of coating solution); type: physicochemical; conditions: for Solubility / Solubility/THF [% by weight]: THF; for Solubility/THF [% by weight]: organic acceptor; for Solubility/THF [% by weight] of organic acceptor: in THF
Excerpt: Specific examples of the organic acceptor compound are shown below.

SMILES	Reduction potential [V] of organic acceptor ([1]; Table 3) [V]	Reduction potential [V] of organic acceptor ([1]; Table 5) [V]	Reduction potential [V] ([1]; Table 1)	Reduction potential [V] ([1]; Table 2)	Redox potential ([1]; Table 4)	Redox potential ([1]; Table 6)	Reduction Potential [1] [V]	Solubility [2] [% by weight]	Solubility/THF [% by weight] ([2]; Table 1)	Solubility/THF [% by weight] ([2]; Table 2)	Solubility/THF [% by weight] ([2]; Table 4)	Solubility/THF [% by weight] ([2]; Table 6)	Solubility/THF [% by weight] of organic acceptor ([2]; Table 3) [% by weight]	Solubility/THF [% by weight] of organic acceptor ([2]; Table 5) [% by weight]
O=C1C(Oc2ccccc2)=C(Oc2ccccc2)C(=O)c2ccccc21 [AC-1]	−0.95	−0.95	−0.95	−0.95	−0.95	−0.95	−0.95	3	3	3	3	3	3	3
CC(C)(C)C1=CC(=C2C=C(C(C)(C)C)C(=O)C(C(C)(C)C)=C2)C=C(C(C)(C)C)C1=O [AC-2]	−0.85	−0.85	−0.85	−0.85	–	–	−0.85	3	3	3	–	–	3	3
O=C1c2ccc3c4c(ccc(c24)C(=O)N1C1CCCCC1)C(=O)N(C1CCCCC1)C3=O [AC-3]	−0.85	−0.85	−0.85	−0.85	–	–	−0.85	1	1	1	–	–	1	1
O=C1NC(=O)c2ccccc21 [AC-4]	−1.28	−1.28	−1.28	−1.28	–	–	−1.28	3	3	3	–	–	3	3
O=C1OC(=O)c2ccccc21 [AC-5, reference compound]	–	–	–	–	−1.53	−1.53	−1.53	5	–	–	5	5	–	–
O=C(c1ccccc1)c1ccccc1 [AC-6, reference compound]	–	–	–	–	−1.32	−1.32	−1.32	–	–	–	–	–	–	–
Cc1ccc(C(=O)c2ccc(C)cc2)cc1 [AC-8, reference compound]	–	–	–	–	−1.31	−1.31	−1.31	11	–	–	11	11	–	–
